From US20090304692A1, “TRIAZINE COMPOUNDS AS PI3 KINASE AND MTOR INHIBITORS” (Wyeth, priority 2008, published 2009)
“And” between values parts separate entries of the source, which are not always exact repeats. Equal entries are not always repeated. Where two headings read alike, the source gives them in different places.

How the values were obtained:
Human mTOR (FLAG-TOR) = Human mTOR (FLAG-TOR) (Homo sapiens, UniProt P42345); experiment: mTOR kinase assay (DELFIA format, purified enzyme); type: biochemical; conditions: read-out: IC50 mTOR
Sequence of Human mTOR (FLAG-TOR) (P42345 1360-2549 limits assumed): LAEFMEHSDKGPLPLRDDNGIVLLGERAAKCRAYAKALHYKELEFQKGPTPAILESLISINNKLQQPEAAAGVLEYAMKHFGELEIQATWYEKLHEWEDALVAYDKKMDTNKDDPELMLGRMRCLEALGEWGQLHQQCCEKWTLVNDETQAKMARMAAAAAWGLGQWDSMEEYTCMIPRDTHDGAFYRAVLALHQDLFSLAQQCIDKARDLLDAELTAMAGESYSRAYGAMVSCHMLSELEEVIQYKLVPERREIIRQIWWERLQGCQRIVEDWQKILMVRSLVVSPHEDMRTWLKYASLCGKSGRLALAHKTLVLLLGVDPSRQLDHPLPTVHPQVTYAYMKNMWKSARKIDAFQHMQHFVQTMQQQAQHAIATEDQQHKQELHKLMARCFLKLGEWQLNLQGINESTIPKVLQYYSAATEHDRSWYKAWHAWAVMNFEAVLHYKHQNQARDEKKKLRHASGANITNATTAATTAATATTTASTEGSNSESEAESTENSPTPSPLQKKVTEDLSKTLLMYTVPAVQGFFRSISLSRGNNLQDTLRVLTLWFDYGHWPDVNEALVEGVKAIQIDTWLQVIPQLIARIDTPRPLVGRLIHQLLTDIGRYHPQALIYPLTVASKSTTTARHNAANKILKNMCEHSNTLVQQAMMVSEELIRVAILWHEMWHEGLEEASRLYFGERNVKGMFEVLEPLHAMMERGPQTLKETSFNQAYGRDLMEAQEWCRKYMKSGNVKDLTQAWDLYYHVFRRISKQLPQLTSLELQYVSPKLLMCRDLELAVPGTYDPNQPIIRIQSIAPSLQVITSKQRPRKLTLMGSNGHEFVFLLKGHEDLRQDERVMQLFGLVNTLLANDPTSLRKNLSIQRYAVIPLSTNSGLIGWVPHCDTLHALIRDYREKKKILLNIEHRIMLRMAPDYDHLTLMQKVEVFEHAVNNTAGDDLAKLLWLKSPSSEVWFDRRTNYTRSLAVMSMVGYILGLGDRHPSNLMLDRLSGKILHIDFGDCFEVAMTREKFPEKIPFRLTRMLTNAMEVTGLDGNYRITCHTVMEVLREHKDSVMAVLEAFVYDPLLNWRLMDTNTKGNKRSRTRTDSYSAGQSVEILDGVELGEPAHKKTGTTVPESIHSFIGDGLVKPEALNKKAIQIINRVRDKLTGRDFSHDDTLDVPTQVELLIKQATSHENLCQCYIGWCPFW

[1] = test system: human breast MDA-MB-361 tumor cell line; experiment: In vitro cell culture growth assay (MTS), MDA-MB-361; type: cell-based
[2] = test system: human prostate PC3-mm2 tumor cell line; experiment: In vitro cell culture growth assay (MTS), PC3-mm2; type: cell-based
PI3K-α = PI3K-α (Homo sapiens, UniProt P42336); experiment: PI3K-alpha fluorescence polarization assay; conditions: read-out: IC50 PI3Kα
Sequence of PI3K-α (P42336 whole entry, species assumed): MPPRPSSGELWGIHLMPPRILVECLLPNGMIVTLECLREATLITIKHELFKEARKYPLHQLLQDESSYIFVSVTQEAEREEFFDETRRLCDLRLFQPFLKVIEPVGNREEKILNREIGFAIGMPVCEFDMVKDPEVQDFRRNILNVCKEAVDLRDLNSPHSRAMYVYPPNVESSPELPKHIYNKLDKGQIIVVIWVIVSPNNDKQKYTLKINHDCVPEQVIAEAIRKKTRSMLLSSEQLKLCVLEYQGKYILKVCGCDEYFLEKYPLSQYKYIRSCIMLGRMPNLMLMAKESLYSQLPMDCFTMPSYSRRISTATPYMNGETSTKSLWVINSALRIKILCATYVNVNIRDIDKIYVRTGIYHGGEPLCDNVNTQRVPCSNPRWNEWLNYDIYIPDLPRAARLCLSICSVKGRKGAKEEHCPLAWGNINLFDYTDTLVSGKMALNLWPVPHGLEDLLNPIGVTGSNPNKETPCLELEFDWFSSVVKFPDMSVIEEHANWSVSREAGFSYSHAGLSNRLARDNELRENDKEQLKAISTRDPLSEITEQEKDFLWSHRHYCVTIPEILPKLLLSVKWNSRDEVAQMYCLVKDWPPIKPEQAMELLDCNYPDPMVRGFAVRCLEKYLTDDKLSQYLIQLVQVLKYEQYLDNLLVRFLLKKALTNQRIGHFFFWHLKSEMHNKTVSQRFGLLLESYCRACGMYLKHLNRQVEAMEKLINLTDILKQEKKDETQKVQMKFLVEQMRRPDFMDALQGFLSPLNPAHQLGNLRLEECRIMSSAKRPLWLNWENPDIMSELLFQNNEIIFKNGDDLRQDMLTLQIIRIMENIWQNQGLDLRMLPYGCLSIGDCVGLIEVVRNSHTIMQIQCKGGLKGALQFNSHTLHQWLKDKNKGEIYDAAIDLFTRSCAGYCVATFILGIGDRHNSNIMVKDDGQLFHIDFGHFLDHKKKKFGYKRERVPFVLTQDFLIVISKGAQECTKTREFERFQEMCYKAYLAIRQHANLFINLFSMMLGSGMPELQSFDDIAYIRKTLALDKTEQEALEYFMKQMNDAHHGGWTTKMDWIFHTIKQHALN
Sequence of PI3K-α (P27986 whole entry partner, species assumed): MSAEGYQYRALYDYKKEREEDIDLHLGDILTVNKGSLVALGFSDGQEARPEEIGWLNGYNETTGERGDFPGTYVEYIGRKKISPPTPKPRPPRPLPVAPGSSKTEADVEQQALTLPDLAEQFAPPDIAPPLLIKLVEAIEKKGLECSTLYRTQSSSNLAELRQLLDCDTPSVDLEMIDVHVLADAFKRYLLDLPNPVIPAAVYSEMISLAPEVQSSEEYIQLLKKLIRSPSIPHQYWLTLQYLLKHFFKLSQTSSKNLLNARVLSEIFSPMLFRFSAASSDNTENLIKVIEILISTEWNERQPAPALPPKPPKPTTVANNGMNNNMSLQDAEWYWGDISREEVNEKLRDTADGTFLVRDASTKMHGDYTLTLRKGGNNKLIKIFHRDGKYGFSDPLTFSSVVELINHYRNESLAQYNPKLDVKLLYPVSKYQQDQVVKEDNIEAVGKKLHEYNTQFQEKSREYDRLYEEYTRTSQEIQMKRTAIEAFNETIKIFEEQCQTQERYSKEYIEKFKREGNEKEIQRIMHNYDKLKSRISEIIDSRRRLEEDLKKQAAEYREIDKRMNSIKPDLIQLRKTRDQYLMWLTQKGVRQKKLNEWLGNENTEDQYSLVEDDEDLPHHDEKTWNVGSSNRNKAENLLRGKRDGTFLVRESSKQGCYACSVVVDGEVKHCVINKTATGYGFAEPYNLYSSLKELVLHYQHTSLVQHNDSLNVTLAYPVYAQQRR

PI3K-γ = PI3K-γ (Homo sapiens, UniProt P48736); experiment: PI3K-gamma fluorescence polarization assay; conditions: read-out: IC50 PI3Kγ
Sequence of PI3K-γ (P48736 whole entry, species assumed): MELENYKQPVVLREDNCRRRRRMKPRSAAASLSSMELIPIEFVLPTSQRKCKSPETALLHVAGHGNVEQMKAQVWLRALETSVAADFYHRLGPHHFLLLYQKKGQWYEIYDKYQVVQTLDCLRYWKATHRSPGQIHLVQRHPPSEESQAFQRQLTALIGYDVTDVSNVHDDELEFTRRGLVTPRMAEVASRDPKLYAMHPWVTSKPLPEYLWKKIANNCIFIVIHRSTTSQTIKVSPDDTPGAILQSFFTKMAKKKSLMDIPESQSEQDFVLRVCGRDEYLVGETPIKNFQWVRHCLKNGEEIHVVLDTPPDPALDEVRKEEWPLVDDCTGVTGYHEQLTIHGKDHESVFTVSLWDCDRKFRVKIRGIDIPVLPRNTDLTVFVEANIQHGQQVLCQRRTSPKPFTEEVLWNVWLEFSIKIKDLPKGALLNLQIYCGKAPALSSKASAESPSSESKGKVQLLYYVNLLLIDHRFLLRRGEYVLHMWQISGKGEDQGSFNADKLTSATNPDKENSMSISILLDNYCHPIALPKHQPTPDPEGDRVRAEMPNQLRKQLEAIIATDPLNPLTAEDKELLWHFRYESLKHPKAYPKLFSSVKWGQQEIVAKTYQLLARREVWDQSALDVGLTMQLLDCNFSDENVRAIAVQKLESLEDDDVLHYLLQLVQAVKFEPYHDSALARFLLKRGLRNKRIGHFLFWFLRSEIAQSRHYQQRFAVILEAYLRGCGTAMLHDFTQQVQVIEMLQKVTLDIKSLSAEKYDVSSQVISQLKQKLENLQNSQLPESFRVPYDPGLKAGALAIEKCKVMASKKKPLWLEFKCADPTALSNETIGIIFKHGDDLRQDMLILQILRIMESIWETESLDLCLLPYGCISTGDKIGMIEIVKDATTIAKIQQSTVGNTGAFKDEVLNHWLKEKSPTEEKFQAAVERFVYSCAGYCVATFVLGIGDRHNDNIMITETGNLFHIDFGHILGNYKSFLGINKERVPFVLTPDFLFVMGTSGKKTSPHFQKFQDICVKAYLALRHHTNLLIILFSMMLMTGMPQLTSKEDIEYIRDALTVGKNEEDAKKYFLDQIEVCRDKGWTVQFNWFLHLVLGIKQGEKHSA

[3] = Homo sapiens, 72 h, MTS cell growth assay, three days after drug treatment, MDA-MB-361 cells, read-out: IC50 MDA-MB-361
[4] = Homo sapiens, PC3MM2, 72 h, MTS cell growth assay, three days after drug treatment, PC3-mm2 cells, read-out: IC50 PC3-mm2
[5] = Homo sapiens, MDA-MB-361, 72 h, MTS cell growth assay, three days after drug treatment, MDA-MB-361 cells, read-out: IC50 MDA-MB-361
[6] = Homo sapiens, MDA-MB-361, 72 h, MTS cell growth assay, three days after drug treatment, read-out: IC50 MDA-MB-361
[7] = Homo sapiens, PC3MM2, 72 h, MTS cell growth assay, three days after drug treatment, read-out: IC50 PC3-mm2
[8] = Homo sapiens, PC3MM2, 72 h, PC3-mm2 cells, MTS, three days after drug treatment, read-out: IC50 PC3-mm2

Row | Compound | IC50 (Human mTOR (FLAG-TOR)) | IC50 [2, 4] | IC50 (PI3K-α) | IC50 (PI3K-γ) | IC50 [1, 6] | IC50 [2, 7] | other results
1 | O=C(Nc1ccncc1)Nc1ccc(-c2nc(OC3CCNCC3)nc(N3CCOCC3)n2)cc1 [Example 688, 1-{4-[4-morpholin-4-yl-6-(piperidin-4-yloxy)-1,3,5-triazin-2-yl]phenyl}-3-pyridin-4-ylurea] | 8 nM | 1950 nM | 3 nM | 35.5 nM | – | – | IC50 [1, 3]: 1410 nM
2 | CN1CCN(C(=O)c2ccc(NC(=O)Nc3ccc(-c4nc(N5CCOCC5)nc(N5CCN(C(=O)N(C)C)CC5)n4)cc3)cc2)CC1 [Example 643, N,N-dimethyl-4-(4-{4-[({4-[(4-methylpiperazin-1-yl)carbonyl]phenyl}carbamoyl)amino]phenyl}-6-morpholin-4-yl-1,3,5-triazin-2-yl)piperazine-1-carboxamide] | 7 nM | 59 nM | 6.2 nM | 42.5 nM | – | – | IC50 [1, 5]: 19 nM
3 | CN1CCC(Oc2nc(-c3ccc(NC(=O)Nc4ccncc4)cc3)nc(N3CCOCC3)n2)CC1 [Example 687, 1-(4-{4-[(1-methylpiperidin-4-yl)oxy]-6-morpholin-4-yl-1,3,5-triazin-2-yl}phenyl)-3-pyridin-4-ylurea] | 4.85 nM | 389 nM | 4 nM | 39.5 nM | – | – | IC50 [1, 3]: 355 nM
4 | O=C(Nc1ccncc1)Nc1ccc(-c2nc(CCC3OCCCO3)nc(N3CCOCC3)n2)cc1 [Example 267, 1-(4-{4-[2-(1,3-dioxan-2-yl)ethyl]-6-morpholin-4-yl-1,3,5-triazin-2-yl}phenyl)-3-pyridin-4-ylurea] | 3.5 nM and 4.3 nM | 200 nM | 17 nM | 58 nM | 94 nM | 200 nM | IC50 (PI3K-α; listed as 730): 15.5 nM; IC50 (PI3K-γ; listed as 730): 64.5 nM
5 | O=C(Nc1ccncc1)Nc1ccc(-c2nc(N3CCOCC3)nc(N3CCOCC3)n2)cc1 [Example 1, 1-[4-(4,6-dimorpholin-4-yl-1,3,5-triazin-2-yl)phenyl]-3-pyridin-4-ylurea] | 1.3 nM | – | 3 nM | 29 nM | – | – | IC50 ([1]; Homo sapiens, MDA-MB-361, 72 h, read-out: IC50 MDA-MB-361, MTS cell growth assay, three days after drug treatment): 45 nM; IC50 ([2]; Homo sapiens, PC3MM2, 72 h, read-out: IC50 PC3-mm2, MTS cell growth assay, three days after drug treatment): 43 nM
6 | CC(C)N1CCN(C(=O)c2ccc(NC(=O)Nc3ccc(-c4nc(N5CCOCC5)nc(N5CCOCC5)n4)cc3)cc2)CC1 [Example 515, 1-[4-(4,6-dimorpholin-4-yl-1,3,5-triazin-2-yl)phenyl]-3-(4-{[4-(1-methylethyl)piperazin-1-yl]carbonyl}phenyl)urea] | 1.55 nM | 12 nM | 0.4 nM | 7.6 nM | – | – | IC50 [1, 5]: 3 nM
7 | CN1CCCC1CCNC(=O)c1ccc(NC(=O)Nc2ccc(-c3nc(N4CCOCC4)nc(N4C5CCCC4COC5)n3)cc2)cc1 (stereo not shown) [Example 801, N-[2-(1-methylpyrrolidin-2-yl)ethyl]-4-[({4-[4-morpholin-4-yl-6-(3-oxa-9-azabicyclo[3.3.1]non-9-yl)-1,3,5-triazin-2-yl]phenyl}carbamoyl)amino]benzamide] | 0.455 nM | – | 5 nM | 38 nM | – | – | IC50 ([1]; Homo sapiens, 72 h, MDA-MB-361 cells, MTS, three days after drug treatment, read-out: IC50 MDA-MB-361): 3 nM; IC50 [2, 8]: 32 nM
8 | O=C(Nc1ccc(-c2nc(N3CCOCC3)nc(N3CCC4(CC3)OCCO4)n2)cc1)Nc1cccnc1 [Example 131, 1-{4-[4-(1,4-dioxa-8-azaspiro[4.5]dec-8-yl)-6-morpholin-4-yl-1,3,5-triazin-2-yl]phenyl}-3-pyridin-3-ylurea] | 14.5 nM | 839 nM | 25 nM | 336 nM | 696 nM | 839 nM | IC50 (PI3K-α; listed as 706): 25.5 nM
9 | O=C(Nc1ccncc1)Nc1ccc(-c2nc(CCNc3ccncc3)nc(N3CCOCC3)n2)cc1 [Example 228, 1-(4-{4-morpholin-4-yl-6-[2-(pyridin-4-ylamino)ethyl]-1,3,5-triazin-2-yl}phenyl)-3-pyridin-4-ylurea] | 51 nM and 55 nM | 7170 nM | 46 nM | 280 nM | 3920 nM | 7170 nM | IC50 (PI3K-α; listed as 718): 40.5 nM; IC50 (PI3K-γ; listed as 718): 210 nM
10 | CCCCc1nc(-c2ccc(NC(=O)Nc3ccncc3)cc2)nc(N2CCOCC2)n1 [Example 186, 1-[4-(4-butyl-6-morpholin-4-yl-1,3,5-triazin-2-yl)phenyl]-3-pyridin-4-ylurea] | 6 nM | – | 28 nM | 221 nM | 473 nM | 703 nM | –
11 | CCN1CCN(C(=O)c2ccc(NC(=O)Nc3ccc(-c4nc(N5CCOCC5)nc(N5C6CCCC5COC6)n4)cc3)cc2)CC1 [Example 804, 1-{4-[(4-ethylpiperazin-1-yl)carbonyl]phenyl}-3-{4-[4-morpholin-4-yl-6-(3-oxa-9-azabicyclo[3.3.1]non-9-yl)-1,3,5-triazin-2-yl]phenyl}urea] | 0.425 nM | – | 6 nM | 59.5 nM | – | – | IC50 ([1]; Homo sapiens, MDA-MB-361, 72 h, MDA-MB-361 cells, MTS, three days after drug treatment, read-out: IC50 MDA-MB-361): 3 nM; IC50 [2, 8]: 11 nM
12 | O=C(Nc1ccncc1)Nc1ccc(-c2nc(CCCO)nc(N3CCOCC3)n2)cc1 [Example 279, 1-{4-[4-(3-hydroxypropyl)-6-morpholin-4-yl-1,3,5-triazin-2-yl]phenyl}-3-pyridin-4-ylurea] | 35 nM and 3.6 nM | 247 nM | 10 nM | 70 nM | 176 nM | 247 nM | IC50 (PI3K-α; listed as 736): 9.5 nM; IC50 (PI3K-γ; listed as 736): 53.5 nM
13 | CC(C)(C)OC(=O)N1CC(Oc2nc(-c3ccc(NC(=O)Nc4ccncc4)cc3)nc(N3CCOCC3)n2)C1 [Example 494, tert-butyl 3-[(4-morpholin-4-yl-6-{4-[(pyridin-4-ylcarbamoyl)amino]phenyl}-1,3,5-triazin-2-yl)oxy]azetidine-1-carboxylate] | 4.2 nM | 276 nM | 16.5 nM | 104 nM | – | – | IC50 [1, 3]: 115 nM
14 | CN(C)CCNC(=O)c1ccc(NC(=O)Nc2ccc(-c3nc(-c4cccs4)nc(N4CCOCC4)n3)cc2)cc1 [Example 563, N-[2-(dimethylamino)ethyl]-4-[({4-[4-morpholin-4-yl-6-(2-thienyl)-1,3,5-triazin-2-yl]phenyl}carbamoyl)amino]benzamide] | 3 nM | 171 nM | 2.5 nM | 33.5 nM | – | – | IC50 [1, 3]: 10 nM
15 | 1-{4-[4-(4-methylphenyl)-6-morpholin-4-yl-1,3,5-triazin-2-yl]phenyl}-3-[4-(pyrrolidin-1-ylcarbonyl)phenyl]urea [Example 553] | 19.5 nM | – | 12.5 nM | 72 nM | – | – | IC50 ([1]; MTS cell growth assay, three days after drug treatment, MDA-MB-361 cells, read-out: IC50 MDA-MB-361): 113 nM; IC50 ([2]; MTS cell growth assay, three days after drug treatment, PC3-mm2 cells, read-out: IC50 PC3-mm2): 522 nM
16 | CCc1nc(-c2ccc(NC(=O)Nc3ccc(C(=O)N4CCNC(C)(C)C4)cc3)cc2)nc(N2CCOCC2)n1 [Example 298, 1-{4-[(3,3-dimethylpiperazin-1-yl)carbonyl]phenyl}-3-[4-(4-ethyl-6-morpholin-4-yl-1,3,5-triazin-2-yl)phenyl]urea] | 21 nM | – | 2 nM | 24 nM | 38 nM | 165 nM | –
